Test results reported in ChEMBL document CHEMBL1150729, “Constituents of Paramichelia baillonii: a new antitumor germacranolide alkaloid” (1987).
Values after ≈ are worked out from the molar mass of the structure shown. Active and inactive are the calls of the source. The rule behind the calls is not given here.

Tests used:
Assay type in all cases: functional
[1] = (§1) Cytotoxicity against human 9KB cells; conditions: read-out: ED50 (the source's name)
[2] = Cytotoxicity against human Laryngeal epidermoid carcinoma cells; conditions: read-out: ED50 (the source's name)
9KB = assay: as §1
KB = assay: Cytotoxicity against human KB cells; conditions: read-out: ED50 (the source's name)

O=C1c2ccccc2-c2c3c(cc4ccnc1c24)OCO3 [LIRIODENINE]
EC50 [1]: 1.6 µg/mL (≈ 5.81 µM)

C=C1C(=O)O[C@@H]2C3O[C@]3(C)CC/C=C(\C)CC[C@@H]12 (stereo not given in full)
EC50 [1]: 0.45 µg/mL (≈ 1.81 µM) | EC50 [2]: 0.76 µg/mL (≈ 3.06 µM)

C/C1=C\CC[C@@]2(C)O[C@H]2[C@H]2OC(=O)[C@@H](C)[C@@H]2CC1
Activity (9KB): inactive

C/C1=C\CC[C@@]2(C)O[C@H]2[C@H]2OC(=O)[C@@H](CNC[C@@H]3C(=O)O[C@H]4[C@H]3CC/C(C)=C/CC[C@@]3(C)O[C@@H]43)[C@@H]2CC1
EC50 (KB): 0.6 µg/mL (≈ 1.17 µM)
